Assay in all cases: NCI tumour cell line growth inhibition, 48 h
Experiment [1] relates to 786-0 renal.
Experiment [2] has as its system HCT-15 colon.
In experiment [3] the test system is IGROV1 ovarian.
In experiment [4] the test system is LOX IMVI melanoma.
The test system of experiment [5] is NCI-H23 lung.
The subject of experiment [6] is NCI-H522 lung.
Experiment [7] concerns RXF 393 renal.
Experiment [8] has as its system UACC-257 melanoma.
Experiment [9] has as its system SK-MEL-28 melanoma.

Consider 25 molecules from PubChem BioAssay (NCI).

Where “and” joins values, the source holds several entries; their conditions need not be identical. Equal entries are not always repeated.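 These data come from cells grown in 96-well plates and exposed to compound for 48 hours at five concentrations. TGI is the concentration that stops growth completely.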

On to `N=C(c1cccs1)C1(N2CCCCC2)CCCCC1`, for which the TGI is above 100 µM in experiment [1]; 29.7 µM in experiment [2]; 39.6 µM in [3]; 47.9 µM in [4]; 43.5 µM in [5]; 30.9 µM in experiment [6]. The TGI in experiment [7] worked out at 29.5 µM; in [8], 31.8 µM.

For `CCOP(=O)(OCC)C(C)(C)OC(=O)NC#N`, the TGI in [1], in experiment [2], in experiment [3], in experiment [4], in [5] and in experiment [7] was above 100 µM each time. Moreover, the TGI in experiment [9] and in experiment [8] was above 100 µM each time.

`O=P1(c2ccccc2)C2=CCC=CC2C(c2ccccc2)N1Cc1ccccc1` (stereo not given): the TGI worked out at 29.4 µM in [1]; 28.1 µM in [2]; 32.9 µM in experiment [3]; 24.8 µM in experiment [5]; 24.6 µM in experiment [6]; 34.9 µM in experiment [8].

`O=[N+]([O-])c1cc(Cl)ccc1S(=O)(=O)N1CCCc2cc(Cl)ccc21`: the TGI in experiment [1], in experiment [2], in experiment [3], in experiment [4], in experiment [7] and in [9] was above 100 µM throughout. Moreover, in experiment [8], the TGI was determined as 83.7 µM.

As to `CN1B(c2ccccc2)N(C)C(=O)N(C)C1=O`, the TGI in experiment [1], in [2], in [3], in experiment [5], in experiment [7] and in experiment [8] was above 100 µM each time.

On to `Cc1ncc([N+](=O)[O-])n1CCNC(=O)CCCCCn1ccnc1[N+](=O)[O-]`, for which the TGI in [1], in experiment [2], in [3], in experiment [5], in [6] and in experiment [8] was above 100 µM in each case.

Turning to `CC1(C)C2CCC(N)(C2)C1O` (stereo not given), the TGI in experiment [1], in experiment [2], in experiment [3], in [4], in experiment [5] and in experiment [7] was above 100 µM in each case. For the same molecule, the TGI in experiment [9] and in [8] was above 100 µM in each case.

Regarding `CC1(C)CC2C(C1=O)C1(C)CCCC2(C)C1=O` (stereo not given), the TGI in experiment [1], in experiment [2], in [3], in [4], in experiment [5] and in experiment [9] was above 100 µM in each case. In addition, the TGI in experiment [8] was above 100 µM.

For `O=S(=O)(/N=C(\NO)Nc1ccc(Cl)cc1)c1ccc(-c2ccccn2)s1`, the TGI is above 100 µM in experiment [2]; above 100 µM in [3]; above 100 µM in [4]; above 100 µM in [5]; 31.8 µM in experiment [6]; 94.4 µM in [7]. The TGI in [9] and in experiment [8] was above 100 µM each time.

As for `CCN(CC)CCC(=O)c1ccc(Oc2ccc(F)cc2)cc1`, the TGI in experiment [1] is 28 µM; in experiment [2], 36.7 µM; in [3] it was 36 µM; in experiment [4] it was 28.8 µM; in [5] it was 45.9 µM; in experiment [7], 30.5 µM. Also, the TGI in [9] worked out at 30.2 µM; in experiment [8], 34 µM.

In the case of `COc1ccccc1NS(=O)(=O)c1ccc2ncn(NS(=O)(=O)c3ccc(Cl)cc3)c(=O)c2c1`, the TGI in [1], in [2], in experiment [3], in experiment [4], in experiment [5] and in experiment [6] was above 100 µM each time. Moreover, the TGI in experiment [9] and in experiment [8] was above 100 µM each time.

`C=CCC(SC)C1=C(C)C(=O)c2ccccc21` (stereo not given): the TGI in experiment [1], in [2], in [3], in experiment [4], in experiment [5] and in [7] was above 10 µM each time. The TGI in [9] and in experiment [8] was above 10 µM each time.

In the case of `NCCCC[C@H](N)C(=O)Nc1ccc(-c2nc3ccccc3s2)cc1Cl`, the TGI in experiment [1] is 8.11 µM; in experiment [2], 20.5 µM; in [3], 22.7 µM; in [5] it was above 37.6 µM; in experiment [6] it was 11 µM; in [7], 27.3 µM. Moreover, the TGI in [9] was 23.4 µM; in experiment [8], 32.4 µM.

As for `CN(C)c1ccc(/C=c2/c3cc([N+](=O)[O-])ccc3n3c2cc(-c2ccccc2)[n+]3C)cc1`, the TGI in experiment [1] is 10.3 µM; in [2] it was 42.1 µM; in experiment [3] it was 2.29 µM; in experiment [5], above 24.2 µM; in experiment [6] it was 1.9 µM; in experiment [9], 3.09 µM.

`COc1ccc(N2C(=O)C3CC4=CC(=O)C[C@H]4[C@H]32)cc1` (stereo not given in full): the TGI in experiment [1], in experiment [2], in [4], in [5], in experiment [7] and in experiment [9] was above 100 µM in each case. In experiment [8], the TGI was above 100 µM.

Turning to `COc1cc2c(c(OC)c1OC)-c1ccc(SC)cc1C(=O)CC2`, the TGI in experiment [1], in [2], in experiment [3], in experiment [4], in experiment [5] and in experiment [7] was above 100 µM each time. Also, the TGI in [9] is above 100 µM.

`CC1CC[C@@]2(OC1)OC1C[C@H]3[C@@H]4CCC5CC(O)CC[C@]5(C)[C@H]4C/C(=N\N(C)C)[C@]3(C)C1[C@@H]2C` (stereo not given in full): the TGI in experiment [1] was 49.8 µM; in experiment [2] it was 60.3 µM; in experiment [3], above 100 µM; in experiment [4], above 100 µM; in experiment [5], 42.6 µM; in experiment [7], 37.7 µM. The TGI in [9] and in experiment [8] was above 100 µM each time.

Consider `COc1ccccc1N=C1SCCN1C(=S)Nc1ccc(S(=O)(=O)/N=C/N(C)C)cc1`, for which the TGI in [1] is above 100 µM; in [2] it was above 100 µM; in [4] it was above 100 µM; in experiment [5], 95.9 µM; in [7], 45.8 µM; in experiment [9] it was above 100 µM. For the same molecule, the TGI in [8] is above 100 µM.

For `CCCCNC(=S)Nc1nc(C(=O)NNC(=O)c2ccccc2)cs1`, the TGI in experiment [1] was 35.2 µM; in experiment [2] it was 26.1 µM; in [3] it was 40.6 µM; in experiment [4] it was 21.7 µM; in [6], 43.7 µM; in experiment [8], 37 µM.

As to `O=C(NN=C1CCCCC1)NN=C1CCCCC1`, the TGI in experiment [2], in experiment [3], in [4], in [5], in experiment [7] and in experiment [9] was above 100 µM throughout. Further, the TGI in [8] is above 100 µM.

Turning to `C[N+](C)(N)c1nc(N)c(C#N)c(C#N)c1C#N`, the TGI in experiment [2], in experiment [3], in experiment [4], in [5], in experiment [6] and in experiment [7] was above 10 µM each time. The TGI in experiment [9] was above 10 µM.

Consider `CC(C)c1cccc(C(C)C)c1OS(=O)(=O)NC(=O)OC(C(F)(F)F)C(F)(F)F`, for which the TGI in experiment [2], in experiment [3], in experiment [4], in experiment [5], in experiment [6] and in [9] was above 100 µM throughout. In addition, the TGI in [8] was above 100 µM.

For `CC1=CC(=O)/C(=C/n2c(=S)[nH]c3ccccc32)C(=O)O1`, the TGI in experiment [1], in experiment [2], in [3], in experiment [4], in experiment [5] and in [6] was above 100 µM each time. The TGI in experiment [7] and in experiment [8] was above 100 µM each time.

For `OC(c1ccccc1)(c1cccnc1)C(O)(c1ccccc1)c1cccnc1` (stereo not given), the TGI in experiment [1], in experiment [2], in experiment [3], in experiment [5], in experiment [6] and in experiment [7] was above 100 µM in each case. This molecule yielded a TGI in [8] above 100 µM.

In the case of `CCC1(O)CC(OC2CC(N(C)C)C(OC3CC(O)C(OC4CCC(=O)C(C)O4)C(C)O3)C(C)O2)c2c(O)c3c(c(O)c2C1C(=O)OC)C(=O)c1cccc(O)c1C3=O` (stereo not given), the TGI in [1] is 0.218 µM and 0.449 µM; in experiment [2], 0.0543 µM and 0.09 µM; in experiment [3] it was 0.0281 µM; in experiment [5], 0.112 µM and 0.031 µM; in [6] it was 0.0549 µM; in [9] it was 0.0837 µM and 0.0571 µM. For the same molecule, the TGI in experiment [8] worked out at 0.0915 µM.
